Source: patent US20090124555A1, “USE OF HISTOGRANIN AND HISTOGRANIN-LIKE COMPOUNDS AS INHIBITORS OF P2X7 RECEPTOR FUNCTION AND AS ANTI-ARTHRITIC AGENTS” (priority 2005, published 2009)

Legend:
P2X7 receptor [1] = molecular target: T1, P2X7 receptor (Rattus norvegicus, UniProt Q64663); assay: ATP-induced membrane permeabilization and pore formation (ethidium bromide uptake) in alveolar macrophages; assay type: cell-based; conditions: for ATP-mediated permeabilization to ethidium bromide / inhibition of ATP-induced pore formation (ethidium bromide uptake): ATP 5 mM; for ATP-mediated permeabilization to ethidium bromide / BzATP-mediated permeabilization to ethidium bromide: pre-treatment with oATP 0.1 mM 2 h or BBG 5×10^−9M 5 min; for BzATP-mediated permeabilization to ethidium bromide / inhibition of BzATP-induced pore formation: BzATP 0.5 mM; for inhibition of ATP-induced pore formation (ethidium bromide uptake): 5 min, compound 10^−9M; for inhibition of ATP-induced pore formation (ethidium bromide uptake) / inhibition of BzATP-induced pore formation: rat alveolar macrophages, FIG. 1A
T1 construct: Alveolar macrophages (AM) were recovered from normal rats by bronchoalveolar lavage; endogenous in cells; host or cells: primary alveolar macrophages from male Wistar rats (bronchoalveolar lavage)
T1 sequence (Q64663 1-595): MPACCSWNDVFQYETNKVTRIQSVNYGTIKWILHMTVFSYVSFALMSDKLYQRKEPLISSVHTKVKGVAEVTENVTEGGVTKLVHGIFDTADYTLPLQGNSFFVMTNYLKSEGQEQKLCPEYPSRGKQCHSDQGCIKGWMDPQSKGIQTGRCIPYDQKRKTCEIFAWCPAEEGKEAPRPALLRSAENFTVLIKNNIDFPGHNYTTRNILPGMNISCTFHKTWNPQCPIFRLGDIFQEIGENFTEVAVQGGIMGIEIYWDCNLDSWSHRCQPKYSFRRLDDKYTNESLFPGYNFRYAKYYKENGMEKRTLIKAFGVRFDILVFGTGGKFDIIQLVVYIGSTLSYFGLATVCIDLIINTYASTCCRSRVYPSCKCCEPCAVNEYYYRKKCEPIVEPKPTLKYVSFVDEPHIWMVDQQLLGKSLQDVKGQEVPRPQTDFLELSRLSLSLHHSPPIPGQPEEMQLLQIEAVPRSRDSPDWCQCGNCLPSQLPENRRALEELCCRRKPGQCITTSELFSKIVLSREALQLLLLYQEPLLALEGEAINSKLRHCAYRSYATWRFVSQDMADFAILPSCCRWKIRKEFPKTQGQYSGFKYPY
Procedure: Alveolar macrophages (AM) were recovered from normal rats by bronchoalveolar lavage (BAL) as described previously (Lemaire (1991) Am. J. Pathol. 138:487-495). The lungs were lavaged with 7 ml-aliquots of sterile phosphate buffered saline (pH 7.4; Wisent, St. Bruno, QC), and BAL cells were obtained by centrifugation at 200×g at 4° C. for 5 minutes. The cells were resuspended in RPMI 1640 medium (Wisent, St-Bruno, QC) supplemented with 0.5% dialysed fetal bovine serum (Wisent. St-Bruno, QC), 0.005% gentamycin (Schering Canada Inc. Pointe Claire. QC) and 0.8% HEPES (Sigma Chemical Co., St-Louis, MO) which will henceforth be referred to as complete culture medium (CM).
Freshly isolated AM (1×10^5) were incubated in 200 μl complete medium in 96 wells tissue culture plates for 24 h. Following centrifugation, medium was replaced with saline solution containing 125 mM NaCl, 5 mM KCL, 1 mM MgSO4, 1 mM Na2HPO4, 5.5 mM glucose, 5 mM NaHCO3, 1 mM CaCl2 and 20 mM Hepes, pH 7.6. Ethidium bromide was added to a final concentration of 20 μM and AM were stimulated with ATP (5 mM, Sigma), 3′-O-(4-benzoylbenzoyl ATP (BzATP) (0.5 mM, Molecular Probes) or uridine 5′-triphosphate (UTP) (Sigma), at 37° C. for 5 minutes. In some experiments, cells were pre-treated with oxidized ATP (oATP, 0.1 mM, Sigma) for 2 h or Brilliant Blue G (BBG, 5×10^−9M, Sigma) for 5 minutes, or HN compounds for 5 minutes before ATP stimulation. After ATP stimulation, the plate was centrifuged (200×g, 1 minute), culture supernatants were replaced with fresh buffer and the fluorescence was analyzed using a Zeiss Axiovert S1100 TV inverted microscope equipped with a rhodamine filter and a 32× objective. Images were captured and analysed with the Northern Eclipse image analysis software. Data are expressed as percentage of cells that become permeabilized to ethidium bromide.

P2X7 receptor [2] = molecular target: T1, P2X7 receptor; assay: ATP-induced extracellular release of IL-1.beta and IL-1.alpha from macrophages in vitro (ELISA); assay type: cell-based
Procedure: Alveolar macrophages (1×10^6 cells/ml) were incubated in complete medium in 96 wells tissue culture plates overnight at 37° C. in 5% CO2. The medium was changed for fresh medium and cells were incubated with Lipopolysaccharide (LPS. 1 μg/ml) (Sigma) for 3 h followed by ATP (5 mM) or 3′-0-(4-benzoylbenzoyl ATP (BZATP) (0.5 mM. Molecular Robes) for 1 h in the presence and absence of HN compounds (10^−9M and 10^−8M) or Brilliant Blue G (BBG, 5×10^−9 M, Sigma). In some experiments, cells were pre-treated with oxidized ATP (oATP, 100 μM, Sigma) for 2 h before LPS and ATP or BzATP stimulation. In other experiments, cells were stimulated with LPS (1 μg/ml) for 3 h and subsequently with Nigericin (20 μM) for 30 min in the presence and absence of HN compounds (10^−9, 10^−8M). Controls were incubated with LPS only. After incubation, cell culture media were collected, centrifuged in a microfuge (Eppendorf) and the cell-free supernatants were collected and stored at −80° C. for cytokine measurement. Levels of immunoreactive IL-1.beta and IL-1.alpha were assayed using ELISA (R&D Systems, Minneapolis, Minn. and Biosource (Medicorp), Camarillo, Calif. respectively) performed according to the manufacturer's protocol.

P2X7 receptor [3] = molecular target: T2, P2X7 receptor (Mus musculus, UniProt Q9Z1M0); assay: ATP-induced extracellular release of IL-1.beta, IL-1.alpha and IL-6 in vivo (peritoneal lavage of LPS-primed mice); conditions: 0.1 mg and 0.3 mg i.p. 15 min before ATP, FIG. 6B
T2 construct: from tissue; host or cells: living mice; peritoneal cavity (lavage fluid analysed)
T2 sequence (Q9Z1M0 1-595): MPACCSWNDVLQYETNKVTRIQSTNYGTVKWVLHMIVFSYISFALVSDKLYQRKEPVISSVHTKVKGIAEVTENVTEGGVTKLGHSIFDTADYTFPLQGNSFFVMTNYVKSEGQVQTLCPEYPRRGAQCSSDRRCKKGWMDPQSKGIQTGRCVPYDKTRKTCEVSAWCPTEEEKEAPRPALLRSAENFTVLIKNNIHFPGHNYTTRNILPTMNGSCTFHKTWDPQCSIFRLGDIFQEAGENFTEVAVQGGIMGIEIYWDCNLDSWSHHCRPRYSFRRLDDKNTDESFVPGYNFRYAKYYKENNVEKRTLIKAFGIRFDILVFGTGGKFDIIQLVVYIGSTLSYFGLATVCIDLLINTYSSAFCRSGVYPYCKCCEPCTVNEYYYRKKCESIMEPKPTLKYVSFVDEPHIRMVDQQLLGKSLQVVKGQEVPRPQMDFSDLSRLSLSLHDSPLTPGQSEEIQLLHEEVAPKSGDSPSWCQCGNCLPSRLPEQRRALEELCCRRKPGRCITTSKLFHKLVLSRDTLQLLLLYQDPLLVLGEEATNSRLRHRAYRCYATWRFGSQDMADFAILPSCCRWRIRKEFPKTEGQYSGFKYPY
Procedure: Groups of mice were injected intraperitoneally (i.p.) with 50 μg of LPS. Two hours after this LPS injection, mice were injected i.p. with either PBS or ATP (5 mM, adjusted to pH 7), or with HN compounds (0.1 mg and 0.3 mg) 15 minutes before ATP injection. Mice were sacrificed 30 minutes (IL-1.beta and IL-1.alpha) or 120 minutes (IL-6) after the ATP or PBS injection and peritoneal cavities were lavaged each with 3 ml PBS. Samples of peritoneal lavages were centrifuged, cell-free supernatants were collected and tested for the presence of IL-1.beta, IL-1.alpha and IL-6 using ELISA (R&D Systems, Minneapolis, Minn., and Biosource, Camarillo, Calif., respectively).

P2X7 receptor [4] = molecular target: T1, P2X7 receptor; assay: ATP-induced apoptosis, cell death ELISA of cytoplasmic oligonucleosomal DNA; assay type: cell-based; conditions: ATP 5 mM 30 min, read after 24 h; compound 10^−9M
Procedure: This assay using mouse monoclonal antibodies directed against DNA and histones respectively, allows the quantitative determination of mono- and oligonucleosomes in the cytoplasmic fraction of cell lysates prepared from macrophages (Li et al. (1997) Toxicol. Appl. Pharmacol. 145:331-339). Alveolar macrophages (1×10^5) were incubated in 200 μl complete medium in 96 wells tissue culture plates with ATP (5 mM) in the presence and absence of HN compounds for 30 minutes and media was replaced with fresh culture media. After 24 h, the plate was centrifuged, the culture supernatants removed and macrophages were lysed in lysis buffer for 30 min on ice and centrifuged at 14,000 rpm for 15 min at 4° C. Cytoplasmic oligonucleosomal DNA was measured in cell supernatants by ELISA.

`CCOc1ccc(Nc2ccc(/C(=C3C=C/C(=[N+](/CC)Cc4cccc(S(=O)(=O)[O-])c4)C=C/3C)c3ccc(N(CC)Cc4cccc(S(=O)(=O)[O-])c4)cc3C)cc2)cc1.[Na+]` [Brilliant Blue G, reference compound] was tested, and the “ATP-mediated permeabilization to ethidium bromide” value (P2X7 receptor [1]) was “blocked”, the “BzATP-mediated permeabilization to ethidium bromide” value (P2X7 receptor [1]) was “blocked” and the “BzATP-induced IL-1.beta release” value (P2X7 receptor [2]; LPS-primed macrophages, BzATP 0.5 mM, BBG 5×10^−9M, FIG. 3A) was “significantly reduced”.

With `N=C(N)NCCC[C@@H](Nc1ccccc1NC(=O)Cc1ccc(O)cc1)C(N)=O` [C-12, N-5-guanidinopentanamide-(2R)-yl-2-N-(p-hydroxphenylacetyl) phenylenediamine] the “inhibition of ATP-induced pore formation (ethidium bromide uptake)” value (“inhibition … (ethidium bromide uptake)” for short) (P2X7 receptor [1]) was “inhibited significantly” and the “IL-1.beta in peritoneal lavage in response to ATP, various HN compounds” value (“IL-1.beta in peritoneal lavage” for short) (P2X7 receptor [3]) was “reduced levels”.

For `N=C(N)NCCC[C@@H](Nc1ccc(C(=O)c2ccc(Cl)cc2)cc1NC(=O)Cc1ccc(O)cc1)C(N)=O` [C-13, N-5-guanidinopentanamide-(2R)-yl-2-N-(p-hydroxyphenylacetyl)-4-(p-chlorobenzoyl)-phenylenediamine], the “IL-1.beta in peritoneal lavage” value (P2X7 receptor [3]) was “reduced levels”.

With `N=C(N)NCCC[C@H](C(N)=O)n1c(Cc2ccc(O)cc2)nc2cc(C(=O)O)ccc21` [C-15, N-5-guanidinopentanamide-(2R)-yl 2-(p-hydroxylbenzyl)5-carboxybenzimidazole] the “inhibition of ATP-induced pore formation, concentration-response” value (P2X7 receptor [1]; 10^−12 M to 10^−6 M, dose-dependent manner, FIG. 1B) was “inhibited”, the “inhibition … (ethidium bromide uptake)” value (P2X7 receptor [1]) was “inhibited significantly” and the “inhibition of BzATP-induced pore formation” value (P2X7 receptor [1]) was “inhibit”. The “cytoplasmic oligonucleosomal DNA in response to ATP” value (P2X7 receptor [4]) was “inhibited”, the “inhibition of extracellular IL-1.beta release, ATP stimulation” value (P2X7 receptor [2]; LPS 3 h then ATP 5 mM 1 h, compound 10^−9 M, FIG. 3A) was “significant inhibition” and the “inhibition of extracellular IL-1.beta release, BzATP stimulation” value (P2X7 receptor [2]; LPS 3 h then BzATP 0.5 mM 1 h, compound 10^−9 M, FIG. 3A) was “significant inhibition”. The IC50 (P2X7 receptor [2]; LPS-primed rat alveolar macrophages, ATP 5 mM, FIG. 3B, read-out: half-maximal response, inhibition of ATP-induced IL-1.beta release) was about 0.1 nM, the “inhibition of ATP-induced IL-1.beta release, concentration-response” value (P2X7 receptor [2]; inhibition already seen at 10^−12M, FIG. 3B) was “dose-dependent” and the “IL-1.beta in peritoneal lavage” value (P2X7 receptor [3]) was “reduced levels”.

In the case of `Nc1ncnc2c1ncn2[C@@H](C=O)O[C@@H](C=O)COP(=O)(O)OP(=O)(O)OP(=O)(O)O` [oATP, oxidized ATP, reference compound], the “ATP-mediated permeabilization to ethidium bromide” value (P2X7 receptor [1]) is reported as “blocked”, the “BzATP-mediated permeabilization to ethidium bromide” value (P2X7 receptor [1]) is reported as “blocked” and the “ATP-induced IL-1.beta release” value (P2X7 receptor [2]; LPS-primed macrophages, ATP 5 mM, oATP 100 μM pre-treatment 2 h, FIG. 3A) is reported as “significantly reduced”.

In the case of “Cyclic (-Gly-(p-chloro)Phe-Tyr-D-Arg-) (GFYR; HELM PEPTIDE1{G.[O=C([C@H](Cc1ccc(Cl)cc1)N[*:1])[*:2]].Y.[dR]}$PEPTIDE1,PEPTIDE1,1:R1-4:R2$$$V2.0; SMILES N=C(N)NCCC[C@H]1NC(=O)[C@H](Cc2ccc(O)cc2)NC(=O)[C@H](Cc2ccc(Cl)cc2)NC(=O)CNC1=O) [C-10]”, the “inhibition … (ethidium bromide uptake)” value (P2X7 receptor [1]) is reported as “inhibited significantly”, the “inhibition of BzATP-induced pore formation” value (P2X7 receptor [1]) is reported as “inhibit” and the “IL-1.beta in peritoneal lavage” value (P2X7 receptor [3]) is reported as “reduced levels”.

In the case of “Cyclic (-Gly-D-Gln-Tyr-D-Arg-) (GQYR; HELM PEPTIDE1{G.[dQ].Y.[dR]}$PEPTIDE1,PEPTIDE1,1:R1-4:R2$$$V2.0; SMILES N=C(N)NCCC[C@H]1NC(=O)[C@H](Cc2ccc(O)cc2)NC(=O)[C@@H](CCC(N)=O)NC(=O)CNC1=O) [C-8]”, the “inhibition … (ethidium bromide uptake)” value (P2X7 receptor [1]) is reported as “inhibited significantly”.

For “Cyclic (-Gly-Gln-Tyr-D-Arg-) (GQYR; HELM PEPTIDE1{G.Q.Y.[dR]}$PEPTIDE1,PEPTIDE1,1:R1-4:R2$$$V2.0; SMILES N=C(N)NCCC[C@H]1NC(=O)[C@H](Cc2ccc(O)cc2)NC(=O)[C@H](CCC(N)=O)NC(=O)CNC1=O) [C-7]”, the “inhibition … (ethidium bromide uptake)” value (P2X7 receptor [1]) was “inhibited significantly”.

In the case of “H-Gly-Gln-Gly-Arg-Thr-Leu-Tyr-Gly-Phe-COOH (H-GQGRTLYGF-OH) [C-3]”, the “cytoplasmic oligonucleosomal DNA in response to ATP” value (P2X7 receptor [4]) is reported as “inhibited”.

With “H-Val-Val-Tyr-Ala-Leu-Lys-Arg-Gln-Gly-[S-(3nitro-2-pyridine sulfenyl)]Cys-Thr-Leu-Tyr-Gly-Phe- [C-5]” the “IL-1.beta in peritoneal lavage” value (P2X7 receptor [3]) was “reduced levels”.
